Source: the supplement of paper PMC11208160
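Also: IS621 recombinase and bridge RNA in Escherichia coli cells.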

Assay: recombinant barcode read abundance after kanamycin selection (control-corrected) (log10(CPM+1)); higher = more efficient recombination; sequences stand for … in AGTGCAGAGAAAATCGGCCAGTTTTCTCTGCCTGCAGTCCGCATGCCGT…AGATTTATGCAGCGGACTGCCTTTCTCCCAAAGTGATAAACCGGACAGTATCATGGACCGGTTTTCCCGGTAATCCGTATTTGCAAGGTTGGTTTCACT; site = the 11-nt target
Procedure: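 Pooled E. coli target-specificity screen for the IS621 bridge recombinase. Each library plasmid pairs an 11-nt target (CT core) with a bridge RNA whose target-binding loop (9-nt LTG + 4-nt RTG) is reprogrammed; the rest of the 177-nt WT IS621 bridge RNA scaffold is fixed. The plasmid is co-electroporated with a WT donor plasmid; recombinase is induced with 0.1 mM IPTG and recombinants are selected on kanamycin. Recombinant barcodes are sequenced, converted to CPM, averaged over two biological replicates and corrected by the unselected control CPM. Molecule = full bridge RNA written as DNA: LTG = specificity nt 1-9, RTG = reverse complement of specificity nt 8-11, in the WT scaffold.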
For “AACTCATCTTGGGTTCTAACCTGTTGCCT (site AACTCATCTAG)”, the “recombinant barcode read abundance (log10)” value was 0.378. With “AACTCATCTTGGGTTCTAACCTGTTGCCT (site AACTGATCTAG)” the “recombinant barcode read abundance (log10)” value was 0.149. For “AACTCATCTTGGGTTCTAACCTGTTGCCT (site AACTTATCTAG)”, the “recombinant barcode read abundance (log10)” value was 0.0223. With “AACTTATCTTGGGTTCTAACCTGTTGCCT (site AACTAATCTAG)” the “recombinant barcode read abundance (log10)” value was 1.02. With “AACTTATCTTGGGTTCTAACCTGTTGCCT (site AACTCATCTAG)” the “recombinant barcode read abundance (log10)” value was 0.0843. In the case of “AACTTATCTTGGGTTCTAACCTGTTGCCT (site AACTGATCTAG)”, the “recombinant barcode read abundance (log10)” value is reported as 0.0896. With “AACTTATCTTGGGTTCTAACCTGTTGCCT (site AACTTATCTAG)” the “recombinant barcode read abundance (log10)” value was 0.812. For “AACTTCACTTGGGTTCTAACCTGTTGCCT (site AACTTCACTAG)”, the “recombinant barcode read abundance (log10)” value was 1.12. For “AACTTCACTTGGGTTCTAACCTGTTGCCT (site AACTTCCCTAG)”, the “recombinant barcode read abundance (log10)” value was 0.013. With “AACTTCACTTGGGTTCTAACCTGTTGCCT (site AACTTCGCTAG)” the “recombinant barcode read abundance (log10)” value was 0.364. With “AACTTCACTTGGGTTCTAACCTGTTGCCT (site AACTTCTCTAG)” the “recombinant barcode read abundance (log10)” value was 0.0193. For “AACTTTCCTTGGGTTCTAACCTGTTGCAT (site AACTATCCTAT)”, the “recombinant barcode read abundance (log10)” value was 0.0732. In the case of “AACTTTCCTTGGGTTCTAACCTGTTGCAT (site AACTCTCCTAT)”, the “recombinant barcode read abundance (log10)” value is reported as 0.465. For “AACTTTCCTTGGGTTCTAACCTGTTGCAT (site AACTGTCCTAT)”, the “recombinant barcode read abundance (log10)” value was 0.0344. In the case of “AACTTTCCTTGGGTTCTAACCTGTTGCAT (site AACTTTCCTAT)”, the “recombinant barcode read abundance (log10)” value is reported as 0.259. In the case of “AAGAAGCCTTGGGTTCTAACCTGTTGCCT (site AAGAAGCCTAG)”, the “recombinant barcode read abundance (log10)” value is reported as 2.01. With “AAGAAGCCTTGGGTTCTAACCTGTTGCCT (site CAGAAGCCTAG)” the “recombinant barcode read abundance (log10)” value was 0.717. For “AAGAAGCCTTGGGTTCTAACCTGTTGCCT (site GAGAAGCCTAG)”, the “recombinant barcode read abundance (log10)” value was 0.14. In the case of “AAGAAGCCTTGGGTTCTAACCTGTTGCCT (site TAGAAGCCTAG)”, the “recombinant barcode read abundance (log10)” value is reported as 0.337. With “AAGAATACTTGGGTTCTAACCTGTTGCCT (site AAGAATACTAG)” the “recombinant barcode read abundance (log10)” value was 1.16. With “AAGAATACTTGGGTTCTAACCTGTTGCCT (site GAGAATACTAC)” the “recombinant barcode read abundance (log10)” value was 0.011. With “AAGACATCTTGGGTTCTAACCTGTTGCTT (site AAGACATCTAA)” the “recombinant barcode read abundance (log10)” value was 1.19. In the case of “AAGACATCTTGGGTTCTAACCTGTTGCTT (site TAGACATCTAT)”, the “recombinant barcode read abundance (log10)” value is reported as 0.24. In the case of “AAGAGTCCTTGGGTTCTAACCTGTTGCGT (site AAAAGTCCTAG)”, the “recombinant barcode read abundance (log10)” value is reported as 0.423. For “AAGAGTCCTTGGGTTCTAACCTGTTGCGT (site AAGAGTCCTAC)”, the “recombinant barcode read abundance (log10)” value was 2.55. For “AAGATACCTTGGGTTCTAACCTGTTGCTT (site AAGATACCTAA)”, the “recombinant barcode read abundance (log10)” value was 1.29. With “AAGATACCTTGGGTTCTAACCTGTTGCTT (site AAGATACCTCA)” the “recombinant barcode read abundance (log10)” value was 0.36. For “AAGATGTCTTGGGTTCTAACCTGTTGCTG (site AAGATGTCTCA)”, the “recombinant barcode read abundance (log10)” value was 1.74. In the case of “AAGATGTCTTGGGTTCTAACCTGTTGCTG (site TAGAAGTCTCA)”, the “recombinant barcode read abundance (log10)” value is reported as 0.0558. For “AAGATTCCTTGGGTTCTAACCTGTTGCCT (site AAGATTCCTAG)”, the “recombinant barcode read abundance (log10)” value was 0.575. With “AAGATTCCTTGGGTTCTAACCTGTTGCCT (site ACGATTCCTAG)” the “recombinant barcode read abundance (log10)” value was 0.0379. With “AAGATTCCTTGGGTTCTAACCTGTTGCCT (site AGGATTCCTAG)” the “recombinant barcode read abundance (log10)” value was 0.111. In the case of “AAGATTCCTTGGGTTCTAACCTGTTGCCT (site ATGATTCCTAG)”, the “recombinant barcode read abundance (log10)” value is reported as 0.217. With “AAGCATGCTTGGGTTCTAACCTGTTGCTA (site AAGCATGCTTA)” the “recombinant barcode read abundance (log10)” value was 0.883. With “AAGCATGCTTGGGTTCTAACCTGTTGCTA (site CTCTTAACTCC)” the “recombinant barcode read abundance (log10)” value was 0.0074. In the case of “AAGCCAACTTGGGTTCTAACCTGTTGCCT (site AAGCAAACTAG)”, the “recombinant barcode read abundance (log10)” value is reported as 0.294. In the case of “AAGCCAACTTGGGTTCTAACCTGTTGCCT (site AAGCCAACTAG)”, the “recombinant barcode read abundance (log10)” value is reported as 1.19. For “AAGCCAACTTGGGTTCTAACCTGTTGCCT (site AAGCGAACTAG)”, the “recombinant barcode read abundance (log10)” value was 0.181. For “AAGCCAACTTGGGTTCTAACCTGTTGCCT (site AAGCTAACTAG)”, the “recombinant barcode read abundance (log10)” value was 0.172. For “AAGCCCTCTTGGGTTCTAACCTGTTGCTT (site AAGACCTCTAA)”, the “recombinant barcode read abundance (log10)” value was 0.144. With “AAGCCCTCTTGGGTTCTAACCTGTTGCTT (site AAGCCCTCTAA)” the “recombinant barcode read abundance (log10)” value was 2.53. In the case of “AAGCCCTCTTGGGTTCTAACCTGTTGCTT (site AAGGCCTCTAA)”, the “recombinant barcode read abundance (log10)” value is reported as 0. For “AAGCCCTCTTGGGTTCTAACCTGTTGCTT (site AAGTCCTCTAA)”, the “recombinant barcode read abundance (log10)” value was 0.0167. For “AAGCCTTCTTGGGTTCTAACCTGTTGCTG (site AAGCCTTCTCA)”, the “recombinant barcode read abundance (log10)” value was 1.68. For “AAGCCTTCTTGGGTTCTAACCTGTTGCTG (site GAGCCTTCTCT)”, the “recombinant barcode read abundance (log10)” value was 0.236. For “AAGCGAACTTGGGTTCTAACCTGTTGCCT (site AAGCAAACTAG)”, the “recombinant barcode read abundance (log10)” value was 0.274. In the case of “AAGCGAACTTGGGTTCTAACCTGTTGCCT (site AAGCCAACTAG)”, the “recombinant barcode read abundance (log10)” value is reported as 0.238. With “AAGCGAACTTGGGTTCTAACCTGTTGCCT (site AAGCGAACTAG)” the “recombinant barcode read abundance (log10)” value was 2.07. With “AAGCGAACTTGGGTTCTAACCTGTTGCCT (site AAGCTAACTAG)” the “recombinant barcode read abundance (log10)” value was 0.319. For “AAGCTAACTTGGGTTCTAACCTGTTGCCT (site AAGCAAACTAG)”, the “recombinant barcode read abundance (log10)” value was 0.044. With “AAGCTAACTTGGGTTCTAACCTGTTGCCT (site AAGCCAACTAG)” the “recombinant barcode read abundance (log10)” value was 0.299. In the case of “AAGCTAACTTGGGTTCTAACCTGTTGCCT (site AAGCGAACTAG)”, the “recombinant barcode read abundance (log10)” value is reported as 0.248. With “AAGCTAACTTGGGTTCTAACCTGTTGCCT (site AAGCTAACTAG)” the “recombinant barcode read abundance (log10)” value was 1.77. In the case of “AAGGCCTCTTGGGTTCTAACCTGTTGCCA (site AAGGCCTCTAT)”, the “recombinant barcode read abundance (log10)” value is reported as 0.0333. In the case of “AAGGCCTCTTGGGTTCTAACCTGTTGCCA (site AAGGCCTCTTG)”, the “recombinant barcode read abundance (log10)” value is reported as 1.88. In the case of “AAGGCCTCTTGGGTTCTAACCTGTTGCTT (site AAGACCTCTAA)”, the “recombinant barcode read abundance (log10)” value is reported as 0.775. For “AAGGCCTCTTGGGTTCTAACCTGTTGCTT (site AAGCCCTCTAA)”, the “recombinant barcode read abundance (log10)” value was 0.156. With “AAGGCCTCTTGGGTTCTAACCTGTTGCTT (site AAGGCCTCTAA)” the “recombinant barcode read abundance (log10)” value was 2.74. With “AAGGCCTCTTGGGTTCTAACCTGTTGCTT (site AAGTCCTCTAA)” the “recombinant barcode read abundance (log10)” value was 0.058. In the case of “AAGGGCCCTTGGGTTCTAACCTGTTGCCT (site AAGGGCCCTAG)”, the “recombinant barcode read abundance (log10)” value is reported as 2.1. With “AAGGGCCCTTGGGTTCTAACCTGTTGCCT (site CAGGGCCCTAG)” the “recombinant barcode read abundance (log10)” value was 0.339. For “AAGGGCCCTTGGGTTCTAACCTGTTGCCT (site GAGGGCCCTAG)”, the “recombinant barcode read abundance (log10)” value was 0.122. In the case of “AAGGGCCCTTGGGTTCTAACCTGTTGCCT (site TAGGGCCCTAG)”, the “recombinant barcode read abundance (log10)” value is reported as 2.24. For “AAGGGCGCTTGGGTTCTAACCTGTTGCCT (site AAGGACGCTAG)”, the “recombinant barcode read abundance (log10)” value was 0.618. For “AAGGGCGCTTGGGTTCTAACCTGTTGCCT (site AAGGCCGCTAG)”, the “recombinant barcode read abundance (log10)” value was 0.238. With “AAGGGCGCTTGGGTTCTAACCTGTTGCCT (site AAGGGCGCTAG)” the “recombinant barcode read abundance (log10)” value was 1.49. For “AAGGGCGCTTGGGTTCTAACCTGTTGCCT (site AAGGTCGCTAG)”, the “recombinant barcode read abundance (log10)” value was 0.261. With “AAGGGGCCTTGGGTTCTAACCTGTTGCCT (site AAGGGGCCTAG)” the “recombinant barcode read abundance (log10)” value was 1.8. For “AAGGGGCCTTGGGTTCTAACCTGTTGCCT (site CGATCTACTCT)”, the “recombinant barcode read abundance (log10)” value was 0.271. In the case of “AAGGGGTCTTGGGTTCTAACCTGTTGCTT (site AAGGGGTCTAA)”, the “recombinant barcode read abundance (log10)” value is reported as 3.02. With “AAGGGGTCTTGGGTTCTAACCTGTTGCTT (site ATGGGGTCTAA)” the “recombinant barcode read abundance (log10)” value was 0.898. With “AAGGTCGCTTGGGTTCTAACCTGTTGCCT (site AAGGACGCTAG)” the “recombinant barcode read abundance (log10)” value was 0.33. With “AAGGTCGCTTGGGTTCTAACCTGTTGCCT (site AAGGCCGCTAG)” the “recombinant barcode read abundance (log10)” value was 1.14. With “AAGGTCGCTTGGGTTCTAACCTGTTGCCT (site AAGGGCGCTAG)” the “recombinant barcode read abundance (log10)” value was 0.347. For “AAGGTCGCTTGGGTTCTAACCTGTTGCCT (site AAGGTCGCTAG)”, the “recombinant barcode read abundance (log10)” value was 2.45. In the case of “AAGTATCCTTGGGTTCTAACCTGTTGCGG (site AAGTATCCTCC)”, the “recombinant barcode read abundance (log10)” value is reported as 2.02. With “AAGTATCCTTGGGTTCTAACCTGTTGCGG (site AGGGATCCTCC)” the “recombinant barcode read abundance (log10)” value was 0.349. With “AAGTATTCTTGGGTTCTAACCTGTTGCGT (site AAGTATTCTAC)” the “recombinant barcode read abundance (log10)” value was 2.23. For “AAGTATTCTTGGGTTCTAACCTGTTGCGT (site TAGTCTTCTAC)”, the “recombinant barcode read abundance (log10)” value was 0.022. For “AAGTCCTCTTGGGTTCTAACCTGTTGCTG (site AAGTCCTCTCA)”, the “recombinant barcode read abundance (log10)” value was 1.43. With “AAGTCCTCTTGGGTTCTAACCTGTTGCTG (site CTAAGGCCTAT)” the “recombinant barcode read abundance (log10)” value was 0.442. With “AAGTCCTCTTGGGTTCTAACCTGTTGCTT (site AAGACCTCTAA)” the “recombinant barcode read abundance (log10)” value was 0.0682.
